Source: US12116358B2, “Substituted indoles and methods of use thereof” (EPIZYME, INC., priority 2018, dated 2024)
Read-outs that look alike come from different tables or passages of the source.

Legend:
H3K36me3 in A549 cells = test: In-Cell Western (ICW) assay of SETD2 inhibitors (A549 assay); assay type: cell-based, human
In short: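 H3K36me3 In-Cell Western: cells exposed to compound for 3 days at 4,000 cells/well, 37° C. DRAQ5 (1:1000) marked cell number, with 700/800-channel Licor read-out.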

SETD2(1434-1711) = target: T1, SETD2(1434-1711) (Homo sapiens, UniProt Q9BYW2); test: SETD2 (1434-1711) assay; assay type: biochemical
T1 construct: SETD2 (1434-1711) Assay; catalogue N/A
T1 sequence (Q9BYW2 1434-1711): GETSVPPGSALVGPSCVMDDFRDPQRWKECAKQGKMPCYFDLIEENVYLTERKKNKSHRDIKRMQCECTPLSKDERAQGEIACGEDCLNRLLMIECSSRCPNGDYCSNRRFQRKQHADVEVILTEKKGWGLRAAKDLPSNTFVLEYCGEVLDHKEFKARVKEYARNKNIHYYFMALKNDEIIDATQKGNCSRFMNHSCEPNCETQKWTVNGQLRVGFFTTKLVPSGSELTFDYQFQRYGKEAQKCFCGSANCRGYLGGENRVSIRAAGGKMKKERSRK

[1] = A549 cells, read-out: SETD2 A549
[2] = Homo sapiens, A549 cells, read-out: SETD2 A549

| Structure (SMILES) | IC50 (H3K36me3 in A549 cells; [1]) [nM] | IC50 (SETD2(1434-1711); read-out: SETD2 (1434-1711)) [nM] | IC50 (H3K36me3 in A549 cells; [2]) [nM] | IC50 (H3K36me3 in A549 cells; Homo sapiens, A549, read-out: SETD2 A549) [nM] | IC50 (SETD2(1434-1711)) [nM] |
| --- | --- | --- | --- | --- | --- |
| Cc1ccc(F)c2cc(C(=O)Nc3cccc(N4CCN(C(C)C)C(=O)C4)c3)[nH]c12 [compound 201] | 400 | 90 | – | – | – |
| Cc1ccc(F)c2cc(C(=O)Nc3cccc(N4CCN(CCO)CC4)c3)[nH]c12 [compound 204] | – | – | – | 400 | 80 |
| Cc1ccc(F)c2cc(C(=O)Nc3cccc(N4CCC5(CCN(CC(F)F)C5)CC4)c3)[nH]c12 [compound 206] | 400 | 90 | – | – | – |
| Cc1ccc(F)c2cc(C(=O)Nc3cccc(N4CCN(C5CCOCC5)CC4)c3)[nH]c12 [compound 207] | 400 | 100 | – | – | – |
| Cc1ccc(F)c2cc(C(=O)Nc3cccc(N4CCOCC4=O)c3)[nH]c12 [compound 209] | – | 200 | 400 | – | – |
| CC(=O)N1[C@H](C)CN(c2cccc(NC(=O)c3cc4c(F)ccc(C)c4[nH]3)c2)C[C@H]1C [compound 214] | 500 | 100 | – | – | – |
| Cc1ccc(F)c2cc(C(=O)Nc3cccc(-c4cc5cnccn5c4)c3)[nH]c12 [compound 215] | 500 | 70 | – | – | – |
| Cc1ccc(F)c2cc(C(=O)Nc3cccc(N4CCOCC4C)c3)[nH]c12 (centres unmarked) [compound 216] | 500 | 100 | – | – | – |
| Cc1ccc(F)c2cc(C(=O)Nc3cccc(N4CC5CC(C4)O5)c3)[nH]c12 [compound 218] | 500 | 70 | – | – | – |
| COCCN1CCN(c2cccc(NC(=O)c3cc4c(F)ccc(C)c4[nH]3)c2)CC1 [compound 223] | 500 | 90 | – | – | – |
| Cc1ccc(F)c2cc(C(=O)Nc3cccc(C4COC4)c3)[nH]c12 [compound 224] | 500 | 200 | – | – | – |
| Cc1ccc(F)c2cc(C(=O)Nc3cccc(C4CCN(C(=O)CN(C)C)C4)c3)[nH]c12 (centres unmarked) [compound 226] | 500 | 60 | – | – | – |
| Cc1ccc(F)c2cc(C(=O)Nc3cccc(-c4ccc(Cn5ccnc5)cc4)c3)[nH]c12 [compound 228] | 500 | 80 | – | – | – |
| Cc1ccc(F)c2cc(C(=O)Nc3cccc(N4CCN(C)C(C(F)(F)F)C4)c3)[nH]c12 (centres unmarked) [compound 229] | 500 | 100 | – | – | – |
| Cc1ccc(F)c2cc(C(=O)Nc3cccc(-c4ccc(OCCO)cc4)c3)[nH]c12 [compound 231] | 500 | 100 | – | – | – |
| Cc1ccc(F)c2cc(C(=O)Nc3cc(N4CCN(C)CC4)n4cncc4c3)[nH]c12 [compound 232] | – | 60 | 500 | – | – |
| Cc1ccc(F)c2cc(C(=O)Nc3cccc(-c4cccn5nccc45)c3)[nH]c12 [compound 235] | – | 100 | 500 | – | – |
| Cc1ccc(F)c2cc(C(=O)Nc3cccc(N4CCN(C5CC5)CC4)c3)[nH]c12 [compound 236] | 600 | 200 | – | – | – |

| Structure (SMILES) | IC50 (H3K36me3 in A549 cells; [1]) [nM] | IC50 (SETD2(1434-1711); read-out: SETD2 (1434-1711)) [nM] | IC50 (H3K36me3 in A549 cells; [2]) [nM] | IC50 (H3K36me3 in A549 cells; Homo sapiens, A549, read-out: SETD2 A549) [nM] | IC50 (SETD2(1434-1711)) [nM] |
| --- | --- | --- | --- | --- | --- |
| Cc1ccc(F)c2cc(C(=O)Nc3cccc(-c4nncn4C)c3)[nH]c12 [compound 237] | 600 | 100 | – | – | – |
| Cc1ccc(F)c2cc(C(=O)Nc3cccc4ncccc34)[nH]c12 [compound 238] | 600 | 200 | – | – | – |
| Cc1ccc(F)c2cc(C(=O)Nc3cccc(-c4ccnn4C)c3)[nH]c12 [compound 239] | 600 | 200 | – | – | – |
| CC(=O)N1CCN(c2cc(NC(=O)c3cc4c(F)ccc(C)c4[nH]3)cc(C(F)(F)F)c2)CC1 [compound 242] | 600 | 100 | – | – | – |
| Cc1ccc(F)c2cc(C(=O)Nc3cccc(CCN4CCN(C)CC4)c3)[nH]c12 [compound 244] | 600 | 80 | – | – | – |
| CC(=O)N1CCCN(c2cccc(NC(=O)c3cc4c(F)ccc(C)c4[nH]3)c2)CC1 [compound 248] | 600 | 100 | – | – | – |
| Cc1ccc(F)c2cc(C(=O)Nc3cccc(-c4ncon4)c3)[nH]c12 [compound 249] | – | 200 | 600 | – | – |
| Cc1ccc(F)c2cc(C(=O)Nc3cccc(N4CC5CCC(C4)O5)c3)[nH]c12 [compound 250] | 600 | 100 | – | – | – |
| Cc1ccc(F)c2cc(C(=O)Nc3cccc(-c4cn[nH]c4)c3)[nH]c12 [compound 252] | 600 | 200 | – | – | – |
| Cc1ccc(F)c2cc(C(=O)Nc3cccc(N4CCC(O)(CN(C)C)CC4)c3)[nH]c12 [compound 254] | – | 60 | 600 | – | – |
| Cc1ccc(F)c2cc(C(=O)Nc3cccc(CC(=O)N(C)C)c3)[nH]c12 [compound 256] | – | 200 | 600 | – | – |
| CC(=O)N1C2CC1CN(c1cccc(NC(=O)c3cc4c(F)ccc(C)c4[nH]3)c1)C2 [compound 257] | – | 200 | 600 | – | – |
| Cc1ccc(F)c2cc(C(=O)Nc3cccc(N4CCC5(CCN(CC(F)F)CC5)C4)c3)[nH]c12 [compound 259] | – | 100 | 600 | – | – |
| Cc1ccc(F)c2cc(C(=O)Nc3cccc(N4CCN(C(=O)OC(C)(C)C)CC4)c3)[nH]c12 [compound 260] | – | 200 | 700 | – | – |
| Cc1ccc(F)c2cc(C(=O)Nc3cccc(-c4ncco4)c3)[nH]c12 [compound 261] | – | 80 | 700 | – | – |
| COC1(C)CCN(c2cccc(NC(=O)c3cc4c(F)ccc(C)c4[nH]3)c2)CC1 [compound 262] | – | 200 | 700 | – | – |
| CC(=O)Nc1cccc(-c2cccc(NC(=O)c3cc4c(F)ccc(C)c4[nH]3)c2)c1 [compound 263] | – | 700 | 700 | – | – |

More lines, in order of falling IC50 (SETD2(1434-1711); read-out: SETD2 (1434-1711)), values ahead:

| IC50 (H3K36me3 in A549 cells; [1]) [nM] | IC50 (SETD2(1434-1711); read-out: SETD2 (1434-1711)) [nM] | IC50 (H3K36me3 in A549 cells; [2]) [nM] | Structure (SMILES) | IC50 (H3K36me3 in A549 cells; Homo sapiens, A549, read-out: SETD2 A549) [nM] | IC50 (SETD2(1434-1711)) [nM] |
| --- | --- | --- | --- | --- | --- |
| 400 | 60 | – | Cc1ccc(F)c2cc(C(=O)Nc3cccc(N4CCN(C(=O)CN(C)C)CC4)c3)[nH]c12 [compound 208] | – | – |
| 500 | 60 | – | Cc1ccc(F)c2cc(C(=O)Nc3cccc(-c4cnn(CCO)c4)c3)[nH]c12 [compound 219] | – | – |
| 400 | 50 | – | Cc1ccc(F)c2cc(C(=O)Nc3cccc(N4CCNC(=O)CC4)c3)[nH]c12 [compound 200] | – | – |
| 500 | 50 | – | Cc1ccc(F)c2cc(C(=O)Nc3cccc(N4CCn5ccnc5C4)c3)[nH]c12 [compound 233] | – | – |
| 600 | 50 | – | Cc1ccc(F)c2cc(C(=O)Nc3cccc(N4CCN(C(C)C)CC4)c3)[nH]c12 [compound 243] | – | – |
| – | 50 | 600 | Cc1ccc(F)c2cc(C(=O)Nc3cccc4c3cnn4C3CCN(C)CC3)[nH]c12 [compound 247] | – | – |
| 600 | 50 | – | COCC1(N(C)C)CCN(c2cccc(NC(=O)c3cc4c(F)ccc(C)c4[nH]3)c2)CC1 [compound 253] | – | – |
| 500 | 40 | – | Cc1ccc(F)c2cc(C(=O)Nc3cccc(N4CCN5CCCC5C4)c3)[nH]c12 (centres unmarked) [compound 220] | – | – |
| 500 | 40 | – | Cc1ccc(F)c2cc(C(=O)Nc3cc(F)cc(C4CCN(C5CCN(C)C5=O)C4)c3)[nH]c12 (centres unmarked) [compound 230] | – | – |
| – | 40 | 600 | Cc1cc(CCN2CCN(C)CC2)cnc1C(Cc1ccccc1)NC(=O)c1cc2c(F)ccc(C)c2[nH]1 (centres unmarked) [compound 258] | – | – |
| 400 | 30 | – | Cc1ccc(F)c2cc(C(=O)Nc3cccc(N4CCN(C(C)C)C(C)C4)c3)[nH]c12 (centres unmarked) [compound 205] | – | – |
| 400 | 30 | – | Cc1ccc(F)c2cc(C(=O)Nc3cccc(N4CCC(NCCO)CC4)c3)[nH]c12 [compound 210] | – | – |
| 500 | 30 | – | CCCNC1CCN(c2cccc(NC(=O)c3cc4c(F)ccc(C)c4[nH]3)c2)CC1 [compound 225] | – | – |
| 500 | 30 | – | Cc1ccc(F)c2cc(C(=O)Nc3cccc(N4CCC(N(CCO)CCO)CC4)c3)[nH]c12 [compound 227] | – | – |
| – | 30 | 600 | Cc1ccc(F)c2cc(C(=O)Nc3cccc(C4(C#N)CCC(N(C)C)CC4)c3)[nH]c12 (centres unmarked) [compound 255] | – | – |
| 400 | 20 | – | Cc1ccc(F)c2cc(C(=O)Nc3cccc(N4CC[C@@H](N(C)C)[C@@H](C)C4)c3)[nH]c12 [compound 202] | – | – |
| 400 | 20 | – | Cc1ccc(F)c2cc(C(=O)Nc3cccc(N4CCC5(CCCN5C)CC4)c3)[nH]c12 [compound 212] | – | – |
| 500 | 20 | – | Cc1ccc(F)c2cc(C(=O)Nc3cccc(N4CCC(C)(N(C)C)CC4)c3)[nH]c12 [compound 222] | – | – |
| 600 | 20 | – | Cc1ccc(F)c2cc(C(=O)Nc3cccc(N4CCC(OCCN)CC4)c3)[nH]c12 [compound 240] | – | – |
| – | 20 | 700 | Cc1ccc(F)c2cc(C(=O)Nc3cccc([C@H]4CC[C@H](N(C)C)C4)c3)[nH]c12 [compound 264] | – | – |
| 400 | 10 | – | CCNCC1CN(c2cccc(NC(=O)c3cc4c(F)ccc(C)c4[nH]3)c2)CCO1 (centres unmarked) [compound 203] | – | – |
| 500 | 10 | – | Cc1ccc(F)c2cc(C(=O)Nc3cccc([C@@H]4CC[C@@H](N(C)C)C4)c3)[nH]c12 [compound 217] | – | – |
| 600 | 10 | – | Cc1ccc(F)c2cc(C(=O)Nc3cccc(N4CCC5(CCNC5)CC4)c3)[nH]c12 [compound 241] | – | – |
| 600 | 10 | – | Cc1ccc(F)c2cc(C(=O)Nc3cccc(N4CC5CCN(C)C5C4)c3)[nH]c12 (centres unmarked) [compound 245] | – | – |
| 600 | 10 | – | Cc1ccc(F)c2cc(C(=O)Nc3cccc(C45CCC(N(C)C)CC4C5)c3)[nH]c12 (centres unmarked) [compound 251] | – | – |
| 600 | 9 | – | Cc1ccc(F)c2cc(C(=O)Nc3cc(Cl)cc(N4CCC(CCCN)CC4)c3)[nH]c12 [compound 246] | – | – |
